One experiment addresses T1, JAK3 (Homo sapiens, UniProt P52333).
T1 construct: purchased Invitrogen
T1 sequence (P52333 1-1124): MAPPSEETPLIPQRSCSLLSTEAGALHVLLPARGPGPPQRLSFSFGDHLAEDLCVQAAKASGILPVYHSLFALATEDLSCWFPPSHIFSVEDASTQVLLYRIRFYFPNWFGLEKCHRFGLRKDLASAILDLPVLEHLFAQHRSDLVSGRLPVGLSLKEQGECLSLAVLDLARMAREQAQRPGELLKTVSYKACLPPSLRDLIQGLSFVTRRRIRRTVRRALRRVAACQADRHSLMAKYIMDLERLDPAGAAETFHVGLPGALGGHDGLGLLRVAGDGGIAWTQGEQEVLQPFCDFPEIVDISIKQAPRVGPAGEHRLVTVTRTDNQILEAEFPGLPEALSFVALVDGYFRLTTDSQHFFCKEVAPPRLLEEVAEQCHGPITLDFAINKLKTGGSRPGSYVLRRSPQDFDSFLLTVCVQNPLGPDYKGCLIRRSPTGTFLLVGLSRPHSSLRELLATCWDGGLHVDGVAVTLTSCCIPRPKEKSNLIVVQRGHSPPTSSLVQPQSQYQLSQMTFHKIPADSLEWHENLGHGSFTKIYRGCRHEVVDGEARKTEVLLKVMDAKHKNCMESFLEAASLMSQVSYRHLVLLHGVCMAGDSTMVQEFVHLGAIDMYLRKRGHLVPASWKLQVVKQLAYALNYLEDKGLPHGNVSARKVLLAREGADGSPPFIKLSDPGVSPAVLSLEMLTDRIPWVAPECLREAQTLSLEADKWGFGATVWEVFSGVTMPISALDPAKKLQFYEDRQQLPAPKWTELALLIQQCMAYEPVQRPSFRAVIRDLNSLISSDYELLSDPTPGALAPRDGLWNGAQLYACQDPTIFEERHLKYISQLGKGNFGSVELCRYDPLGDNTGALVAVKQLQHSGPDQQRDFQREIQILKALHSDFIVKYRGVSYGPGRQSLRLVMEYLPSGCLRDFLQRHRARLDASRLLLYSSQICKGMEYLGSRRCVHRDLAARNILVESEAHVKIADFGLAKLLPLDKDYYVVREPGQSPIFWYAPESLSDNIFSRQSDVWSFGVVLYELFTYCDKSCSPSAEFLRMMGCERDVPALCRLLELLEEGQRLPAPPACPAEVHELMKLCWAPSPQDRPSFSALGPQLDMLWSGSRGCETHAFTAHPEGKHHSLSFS
Description: z-lyte kinase assay, JAK3. In kind it is biochemical. Here is the method:
(§1) The inhibiting activities of the inventive compounds obtained in Examples 1 to 237 against EGFR WT and EGFR L858R/T790M kinase were determined using z-lyte kinase assay kit (Invitrogen, PV3191). The kinases used in the test were purchased from Invitrogen.
(§2) The compounds obtained in Examples 1 to 237 were each prepared to 10 mM DMSO solution, and a solution containing 4% DMSO were prepared therefrom and diluted to a concentration of 1 μM to 0.0001 μM. […] The test was conducted in a 384 well polystyrene flat-bottomed plates. 5 μl of the diluted solution of each compound was added to each well, and 10 μl of a mixture of peptide substrate and kinase in a suitable concentration and 5 μl of 5˜300 μM ATP solution were successively added thereto and the plate was incubated in a stirrer at room temperature for 60 minutes. After 60 mins, 10 μl of coloring reagent was added to the resulting mixture to initiate a fluorescence reaction of peptide substrate and a terminating solution was added thereto for terminating the reaction. A fluorescence value of each well was determined with a fluorescence meter (Molecular Device) at 400 nm (excitation filter) and 520 nm (emission filter). […] The calculation of IC50 and the result analysis were carried out by using Microsoft Excel.
(§3) The inhibiting activities of the inventive compounds obtained in Examples 1 to 237 against BTK and JAK3 kinases were determined, respectively. The procedure of Test Example 2 was repeated except that BTK and JAK3 kinases (Invitrogen) were employed instead of using the EGFR kinase.

In experiment [1] the test system is NCI-H1975 (EGFR L858R/T790M). Description: Inhibition test for growth of cancer cell expressing EGFR (MTS), NCI-H1975. In kind it is cell-based. Particulars: Homo sapiens; NCI-H1975 cells, 48 hours, MTS; read-out: GI50 NCI-H1975 EGFR L858R/T790M.
Another experiment concerns the target T2, BTK (Homo sapiens, UniProt Q06187).
T2 construct: purchased Invitrogen
Description: z-lyte kinase assay, BTK. In kind it is biochemical. Here is the method:
as §1, §2, §3

The subject of experiment [2] is HCC827 (EGFR DelE746_A750). The experiment can be described thus: Inhibition test for growth of cancer cell expressing EGFR (SRB), HCC827.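 Further: cells in 96-well plates exposed to tenfold serial dilutions from 100 µM, fixed with trichloroacetic acid, SRB-stained, absorbance read at 540 nm, DMSO under 1%.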 In kind it is cell-based. The following applies: Homo sapiens, HCC827, 72 h, HCC827 cells, 72 hours, SRB; read-out: GI50 HCC827 EGFR DelE746_A750.
Another experiment deals with A431 (EGFR WT). Description: Inhibition test for growth of cancer cell expressing EGFR (SRB), A431.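 Further: cells in 96-well plates exposed to tenfold serial dilutions from 100 µM down to 10^−6 µM, DMSO under 1%, SRB staining read as absorbance at 540 nm.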 In kind it is cell-based. Particulars: Homo sapiens, A-431; A431 cells, 72 hours, SRB; read-out: GI50 A431 EGFR WT.

pIC50: −log10 of the molar value.

T2 sequence (Q06187 whole entry): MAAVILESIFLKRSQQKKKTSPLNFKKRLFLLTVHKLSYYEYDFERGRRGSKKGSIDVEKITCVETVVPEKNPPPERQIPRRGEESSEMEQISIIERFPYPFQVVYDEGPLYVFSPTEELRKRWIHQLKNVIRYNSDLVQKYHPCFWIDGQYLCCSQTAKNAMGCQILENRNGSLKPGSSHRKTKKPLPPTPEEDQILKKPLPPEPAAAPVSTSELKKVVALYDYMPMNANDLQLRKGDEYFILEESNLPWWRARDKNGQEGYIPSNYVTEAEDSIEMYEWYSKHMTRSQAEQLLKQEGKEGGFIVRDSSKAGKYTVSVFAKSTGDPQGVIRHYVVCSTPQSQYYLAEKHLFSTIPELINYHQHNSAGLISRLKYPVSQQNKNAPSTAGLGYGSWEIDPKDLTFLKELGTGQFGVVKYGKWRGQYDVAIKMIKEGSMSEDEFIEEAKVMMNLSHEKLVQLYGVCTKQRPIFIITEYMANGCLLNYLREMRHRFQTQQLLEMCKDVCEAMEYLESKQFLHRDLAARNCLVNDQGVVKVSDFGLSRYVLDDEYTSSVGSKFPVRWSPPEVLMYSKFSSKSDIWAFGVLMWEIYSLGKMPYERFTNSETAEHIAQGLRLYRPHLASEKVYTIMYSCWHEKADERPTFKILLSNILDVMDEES
Description for A431 (EGFR WT): A431 cell line was incubated in a high-glucose DMEM (Dulbecco's Modified Eagle's Medium) supplemented with 10% fetal bovine serum (FBS) and 1% penicillin/streptomycin (Gibco BRL), and HCC827 and NCI-H1975 cell lines were incubated in an RPMI medium supplemented with 10% FBS, 1% penicillin/streptomycin and 1% sodium pyruvate.
The cancer cell lines stored in a liquid nitrogen tank were each quickly thawed at 37° C., and centrifuged to remove the medium. The resulting cell pellet was mixed with a culture medium, incubated in a culture flask at 37° C. under 5% CO2 for 2 to 3 days, and the medium was removed. The remaining cells were washed with DPBS (Dulbecco's Phosphate Buffered Saline) and separated from the flask by using Tripsin-EDTA. […] 100 μl of the diluted cell solution was added to each well of a 96-well plate, and incubated at 37° C. under 5% CO2 for 1 day.
In case that the test compound was not soluble in DMSO, 1% HCl was added thereto and treated in a 40° C. water bath for 30 mins until a complete dissolution was attained. The DMSO solution containing test compound was diluted with a culture medium to a final concentration of 100 μM, and then diluted 10 times serially to 10^−6 μM (a final concentration of DMSO was less than 1%).
The medium was removed from each well of the 96-well plate. And then, 100 μl of a test compound solution was added to each well holding the cultured cells, and the plate was incubated at 37° C. under 5% CO2 for 72 hours (except that NCI-H1975 cells were incubated for 48 hours). After removing the medium from the plate, 50 μA of 10% trichloroacetic acid was added to each well, and the plate was kept at 4° C. for 1 hour to fix the cells to the bottom of the plate. The added 10% trichloroacetic acid solution was removed from each well, the plate was dried, 100 μA of an SRB (Sulforhodamine-B) dye solution at a concentration of 0.4% dissolved in 1% acetic acid was added thereto, and the resulting mixture was reacted for 10 mins at room temperature. After removing the dye solution, the plate was washed with water, and well dried. When the dye solution was not effectively removed by water, 1% acetic acid was used. 150 μA of 10 mM trisma base was added to each well, and the absorbance at 540 nm wavelength was determined with a microplate reader.

As for `C=CC(=O)Nc1cccc(Oc2nc(Nc3ccc(N4CCC(N5CCCCC5)CC4)c(F)c3)nc3ccsc23)c1` [Example 125], the negative-log IC50 (pIC50) at JAK3 and against BTK was at least 7.30 in each case. The GI50 in experiment [1] was under 50 nM; in experiment [2], under 50 nM; in the experiment on A431 (EGFR WT) it was over 1000 nM.
In the case of `C=CC(=O)Nc1cccc(Sc2nc(Nc3ccc(N4CCN(C)CC4)cc3)nc3ccsc23)c1` [Example 223, N-(3-(2-(4-(4-methylpiperazin-1-yl)phenylamino)thieno[3,2-d]pyrimidin-4-ylthio)phenyl)acrylamide], the pIC50 at JAK3 and at BTK was at least 7.30 throughout. Moreover, the GI50 is under 50 nM in experiment [1], under 50 nM in experiment [2] and over 1000 nM in the experiment on A431 (EGFR WT).
Turning to `C=CC(=O)Nc1cccc(Oc2nc(Nc3ccc(CN(C)C)cc3)nc3ccsc23)c1` [Example 173], the pIC50 on JAK3 and at BTK was at least 7.30 throughout. Further, the figures for the GI50 (in experiment [1]; in experiment [2]; in the experiment with A431 (EGFR WT)) were under 50 nM, under 50 nM and 100 to 1000 nM, respectively.
With `C=CC(=O)Nc1cccc(Oc2nc(Nc3ccc(N4CCOCC4)cc3)nc3ccsc23)c1` [Example 29], the pIC50 at JAK3 and against BTK was at least 7.30 throughout. Further, the GI50 in experiment [1] is under 50 nM; in experiment [2] it was 50 to 100 nM; with A431 (EGFR WT) it was over 1000 nM.
`C=CC(=O)Nc1cccc(Oc2nc(Nc3ccc(CN4CCOCC4)cc3)nc3ccsc23)c1` [Example 187]: the pIC50 on JAK3 and against BTK was 7.00 to 7.30 in each case. For the same compound, the GI50 in experiment [1] is under 50 nM; in experiment [2] it was 50 to 100 nM; with A431 (EGFR WT) it was over 1000 nM.
Consider `C=CC(=O)Nc1cccc(Oc2nc(Nc3ccc(C(=O)N4CCN(CC)CC4)c(Cl)c3)nc3ccsc23)c1` [Example 203], for which the pIC50 on JAK3 was 7.00 to 7.30; against BTK, at least 7.30. The GI50 in experiment [1] was under 50 nM; in experiment [2], under 50 nM; in the experiment with A431 (EGFR WT), over 1000 nM.
Consider `C=CC(=O)Nc1cccc(Oc2nc(Nc3ccc(N4CCN(C(C)C)CC4)cc3)nc3ccoc23)c1` [Example 229], for which the pIC50 at JAK3 and on BTK was at least 7.30 throughout. In addition, the GI50 in experiment [1] is under 50 nM; in experiment [2], under 50 nM; in the experiment on A431 (EGFR WT) it was 100 to 1000 nM.
As to `C=CC(=O)Nc1cccc(Oc2nc(Nc3ccc(NC4CCN(C)CC4)c(F)c3)nc3ccsc23)c1` [Example 129], the pIC50 against JAK3 and at BTK was at least 7.30 each time. The GI50 is under 50 nM in experiment [1], under 50 nM in experiment [2] and over 1000 nM in the experiment with A431 (EGFR WT).
In the case of `C=CC(=O)Nc1cccc(Oc2nc(Nc3ccc(N4CCN(C)CC4)cc3)nc3ccoc23)c1` [Example 228, N-(3-((2-((4-(4-methylpiperazin-1-yl)phenyl)amino)furo[3,2-d]pyrimidin-4-yl)oxy)phenyl)acrylamide], the negative-log IC50 (pIC50) on JAK3 and against BTK was at least 7.30 throughout. In addition, the GI50 in experiment [1] was under 50 nM; in experiment [2] it was under 50 nM; in the experiment on A431 (EGFR WT), 100 to 1000 nM.
Regarding `C=CC(=O)Nc1cccc(Oc2nc(Nc3ccc(CN4CCC(N5CCOCC5)CC4)cc3)nc3ccsc23)c1` [Example 181], the negative-log IC50 (pIC50) on JAK3 and at BTK was at least 7.30 each time. Moreover, the results for the GI50 (in experiment [1]; in experiment [2]; in the experiment on A431 (EGFR WT)) were under 50 nM, under 50 nM and over 1000 nM, respectively.
With `C=CC(=O)Nc1cccc(Oc2nc(Nc3ccc(N4CCN(C(C)C)CC4)cc3)nc3ccsc23)c1` [Example 11], the pIC50 against JAK3 and against BTK was at least 7.30 each time. Besides, the GI50 in experiment [1] was under 50 nM; in experiment [2], under 50 nM; in the experiment with A431 (EGFR WT), 100 to 1000 nM.
As for `C=CC(=O)Nc1cccc(Oc2nc(Nc3ccc(CN4CCC(N(C)C)CC4)cc3)nc3ccsc23)c1` [Example 180], the pIC50 against JAK3 and against BTK was at least 7.30 each time. Also, the GI50 is under 50 nM in experiment [1], under 50 nM in experiment [2] and over 1000 nM with A431 (EGFR WT).
On to `C=CC(=O)Nc1ccc(F)c(Nc2nc(Nc3ccc(N4CCN(C)CC4)c(F)c3)nc3ccsc23)c1` [Example 219, N-(4-fluoro-3-(2-(3-fluoro-4-(4-methyl-piperazin-1-yl)-phenylamino)-thieno[3,2-d]pyrimidin-4-ylamino)-phenyl)-acrylamide], for which the pIC50 on JAK3 and against BTK was at least 7.30 throughout. Besides, the GI50 in experiment [1] is under 50 nM; in experiment [2], under 50 nM; with A431 (EGFR WT), over 1000 nM.
Consider `C=CC(=O)Nc1cccc(Oc2nc(Nc3ccc(C(=O)NC4CCN(C(C)C)CC4)cc3)nc3ccsc23)c1` [Example 83], for which the pIC50 on JAK3 and at BTK was at least 7.30 throughout. Moreover, the GI50 is under 50 nM in experiment [1], under 50 nM in experiment [2] and 100 to 1000 nM in the experiment on A431 (EGFR WT).
Take `C=CC(=O)Nc1cccc(Oc2nc(Nc3ccc(CCN4CCN(CC)CC4)cc3)nc3ccsc23)c1` [Example 99]: the pIC50 at JAK3 is 7.00 to 7.30; against BTK, at least 7.30. The GI50 was under 50 nM in experiment [1], 50 to 100 nM in experiment [2] and over 1000 nM with A431 (EGFR WT).
On the same counts, the results for `C=CC(=O)Nc1cccc(Oc2nc(Nc3ccc(CN4CCN(CC)CC4)cc3)nc3ccsc23)c1` [Example 183] are 7.00 to 7.30, 7.00 to 7.30, under 50 nM, under 50 nM and over 1000 nM.
On the same counts, the results for `C=CC(=O)Nc1cccc(Oc2nc(Nc3ccc(NC4CCN(C)CC4)c(F)c3)nc3ccoc23)c1` [Example 237] are at least 7.30, at least 7.30, under 50 nM, under 50 nM and over 1000 nM.
On the same counts, the results for `C=CC(=O)Nc1cccc(Oc2nc(Nc3ccc(C4CCN(CC)CC4)cc3)nc3ccsc23)c1` [Example 53] are at least 7.30, at least 7.30, under 50 nM, under 50 nM and over 1000 nM.
As to `C=CC(=O)Nc1cccc(Oc2nc(Nc3ccc(N4CCC(N5CCN(CC)CC5)CC4)cc3)nc3ccsc23)c1` [Example 50], the values for the pIC50 against JAK3 and against BTK were 7.00 to 7.30 and at least 7.30, respectively. For the same compound, the GI50 in experiment [1] is 100 to 1000 nM; in experiment [2], under 50 nM; in the experiment with A431 (EGFR WT), over 1000 nM.
Regarding `C=CC(=O)Nc1cccc(Oc2nc(Nc3ccc(NCCN(C)C)c(F)c3)nc3ccsc23)c1` [Example 199], the pIC50 against JAK3 and against BTK was at least 7.30 in each case. For the same compound, the GI50 in experiment [1] is under 50 nM; in experiment [2] it was under 50 nM; with A431 (EGFR WT) it was over 1000 nM.
Regarding `C=CC(=O)Nc1cccc(Oc2nc(Nc3ccc(C4=CCN(C)CC4)cc3)nc3ccsc23)c1` [Example 51], the pIC50 on JAK3 was 7.00 to 7.30; against BTK, at least 7.30. In addition, the GI50 in experiment [1] was under 50 nM; in experiment [2], under 50 nM; in the experiment on A431 (EGFR WT), over 1000 nM.

As usually defined, the pIC50 is the negative decadic logarithm of the IC50, by convention in mol/L. A higher pIC50 goes with a small IC50.

Source of the values: patent USRE46511E1, “Fused pyrimidine derivatives for inhibition of tyrosine kinase activity” (HANMI SCIENCE CO., LTD., priority 2010, dated 2017).
